How the values were obtained:
plasma proteins = experiment: Binding of radioactivity / [14C]eplerenone to plasma proteins; assay type: in vitro ADME, humans
Description: The mean concentration of total radioactivity in these samples was 2.39 μg/mL.

[1] = Single dose study: safety; assay type: in vivo; conditions: single 10-1000 mg oral doses, healthy male humans
Description: Antialdosterone activity was determined based on urine levels of sodium and potassium following repeated administration of fludrocortisone. Safety was determined on the basis of laboratory tests, vital signs, and the occurrence and types of adverse events.

[2] = Treatment of hypertension study: safety; assay type: in vivo, humans
Description: The safety and efficacy of a range of doses of eplerenone in the treatment of hypertension relative to placebo were evaluated in a multi-center, randomized, double-blind, placebo-lead-in, parallel group study. […] The primary efficacy variable was the change in cuff diastolic blood pressure (ADBP; sitting) measured at trough plasma levels after eight weeks of double blind treatment. The secondary variables measured were the change in trough cuff systolic blood pressure (ΔSBP; sitting), change in 24 hour mean diastolic blood pressure (ΔDBP), and change in 24 hour mean systolic blood pressure (ΔSBP). The primary and secondary efficacy variables were analyzed to compare BID versus QD dosing regimens for each eplerenone dose group, and both eplerenone and spironolactone versus placebo. Changes in plasma renin and serum aldosterone after eight weeks of dosing were also analyzed as secondary measures of efficacy.
All eplerenone doses lowered cuff diastolic and systolic pressures from baseline after eight weeks of treatment compared to placebo. […] There was, however, a trend toward greater reduction with the BID dosing regimen. […] Over the course of the study, the mean change in heart rate from baseline was minimal in all treatment groups, with the largest mean increase and decrease in heart rate being +2 beats/minute and −1.8 beats/minute, respectively. […] Safety was assessed by comparing the incidence of adverse events, withdrawals, and the results of urinalysis, hematology and biochemistry laboratory tests across the treatment group to the placebo group.

[3] = Single dose study: urinary excretion of eplerenone and open lactone ring form; assay type: in vivo, humans
Description: The study employed seven parallel dose groups of eight healthy male humans.
The plasma samples collected from subjects dosed with eplerenone were assayed for concentrations of eplerenone and the open lactone ring form of eplerenone. […] A subset of plasma samples was also assayed for testosterone levels. The urine collected was analyzed to determine concentrations and amounts of eplerenone and the open lactone ring form of eplerenone, the amount of sodium and potassium excreted, and the urinary log10 (sodium/potassium) ratio.

[4] = all eplerenone treatment groups

COC(=O)C1CC2=CC(=O)CCC2(C)C23OC2CC2(C)C(CC[C@@]24CCC(=O)O4)C13 (stereo partly drawn) [eplerenone, methyl hydrogen 9,11α-epoxy-17α-hydroxy-3-oxopregn-4-ene-7α,21-dicarboxylate, γ-lactone]
total radioactivity bound to plasma proteins (plasma proteins; 1.5 hour plasma samples, mean): 49.4%
percentage of eplerenone bound (plasma proteins; [14C]eplerenone spiked into frozen control plasma, 14.5 μg/mL): 40.4%
changes in physical examinations, vital signs or clinical laboratory results [1]: no clinically significant changes
severity of adverse events [1]: mild
adverse side effects at the highest dose administered ([2]; 1000 mg): No adverse side effects
potassium [2, 4]: small but consistent increases
sodium [2, 4]: decreases
tolerability ([2]; each eplerenone dosing regimen): well tolerated
BUN, uric acid levels compared to placebo ([2]; eplerenone treatment groups): increases
urine pH compared to placebo ([2]; eplerenone treatment groups): decreases
Amount of Eplerenone Excreted in Urine ([3]; 10 mg dose, 0 to 2 hours): (21.6) mcg
Concentration of Eplerenone Excreted in Urine ([3]; 10 mg dose, 0 to 2 hours): 278.0 ng/mL
Amount of Eplerenone Excreted in Urine ([3]; 10 mg dose, 0 to 24 hours): (78.8) mcg
Amount of Eplerenone Excreted in Urine ([3]; 10 mg dose, 2 to 4 hours): (35.8) mcg
Concentration of Eplerenone Excreted in Urine ([3]; 10 mg dose, 2 to 4 hours): 191.1 ng/mL
Amount of Eplerenone Excreted in Urine ([3]; 10 mg dose, 4 to 6 hours): (16.5) mcg
Concentration of Eplerenone Excreted in Urine ([3]; 10 mg dose, 4 to 6 hours): 107.2 ng/mL
Amount of Eplerenone Excreted in Urine ([3]; 10 mg dose, 6 to 8 hours): (7.6) mcg
Concentration of Eplerenone Excreted in Urine ([3]; 10 mg dose, 6 to 8 hours): 63.8 ng/mL
Amount of Eplerenone Excreted in Urine ([3]; 10 mg dose, 8 to 10 hours): (0) mcg
Concentration of Eplerenone Excreted in Urine ([3]; 10 mg dose, 8 to 10 hours): 0 ng/mL
Amount of Eplerenone Excreted in Urine ([3]; 10 mg dose, 10 to 12 hours): (0) mcg
Concentration of Eplerenone Excreted in Urine ([3]; 10 mg dose, 10 to 12 hours): 0 ng/mL
Amount of Eplerenone Excreted in Urine ([3]; 10 mg dose, 12 to 14 hours): (0) mcg
Concentration of Eplerenone Excreted in Urine ([3]; 10 mg dose, 12 to 14 hours): 0 ng/mL
Amount of Eplerenone Excreted in Urine ([3]; 10 mg dose, 14 to 16 hours): (0) mcg
Concentration of Eplerenone Excreted in Urine ([3]; 10 mg dose, 14 to 16 hours): 0 ng/mL
Amount of Eplerenone Excreted in Urine ([3]; 10 mg dose, 16 to 24 hours): (0) mcg
Concentration of Eplerenone Excreted in Urine ([3]; 10 mg dose, 16 to 24 hours): 0 ng/mL
Amount of Eplerenone Excreted in Urine ([3]; 10 mg dose, −9 to 0 hours): (0) mcg
Concentration of Eplerenone Excreted in Urine ([3]; 10 mg dose, −9 to 0 hours): 0 ng/mL
Amount of Eplerenone Excreted in Urine ([3]; 50 mg dose, 0 to 2 hours): (99.2) mcg
Concentration of Eplerenone Excreted in Urine ([3]; 50 mg dose, 0 to 2 hours): 1252.2 ng/mL
Amount of Eplerenone Excreted in Urine ([3]; 50 mg dose, 0 to 24 hours): (410.6) mcg
Amount of Eplerenone Excreted in Urine ([3]; 50 mg dose, 2 to 4 hours): (175.3) mcg
Concentration of Eplerenone Excreted in Urine ([3]; 50 mg dose, 2 to 4 hours): 1064.6 ng/mL
Amount of Eplerenone Excreted in Urine ([3]; 50 mg dose, 4 to 6 hours): (60.6) mcg
Concentration of Eplerenone Excreted in Urine ([3]; 50 mg dose, 4 to 6 hours): 518.3 ng/mL
Amount of Eplerenone Excreted in Urine ([3]; 50 mg dose, 6 to 8 hours): (30.7) mcg
Concentration of Eplerenone Excreted in Urine ([3]; 50 mg dose, 6 to 8 hours): 307.3 ng/mL
Amount of Eplerenone Excreted in Urine ([3]; 50 mg dose, 8 to 10 hours): (27.6) mcg
Concentration of Eplerenone Excreted in Urine ([3]; 50 mg dose, 8 to 10 hours): 172.4 ng/mL
Amount of Eplerenone Excreted in Urine ([3]; 50 mg dose, 10 to 12 hours): (16.5) mcg
Concentration of Eplerenone Excreted in Urine ([3]; 50 mg dose, 10 to 12 hours): 72.7 ng/mL
Amount of Eplerenone Excreted in Urine ([3]; 50 mg dose, 12 to 14 hours): (11.3) mcg
Concentration of Eplerenone Excreted in Urine ([3]; 50 mg dose, 12 to 14 hours): 23.1 ng/mL
Amount of Eplerenone Excreted in Urine ([3]; 50 mg dose, 14 to 16 hours): (1.5) mcg
Concentration of Eplerenone Excreted in Urine ([3]; 50 mg dose, 14 to 16 hours): 21.6 ng/mL
Amount of Eplerenone Excreted in Urine ([3]; 50 mg dose, 16 to 24 hours): (4.0) mcg
Concentration of Eplerenone Excreted in Urine ([3]; 50 mg dose, 16 to 24 hours): 13.1 ng/mL
Amount of Eplerenone Excreted in Urine ([3]; 50 mg dose, −9 to 0 hours): (0) mcg
Concentration of Eplerenone Excreted in Urine ([3]; 50 mg dose, −9 to 0 hours): 0 ng/mL
Amount of Eplerenone Excreted in Urine ([3]; 100 mg dose, 0 to 2 hours): (360.2) mcg
Concentration of Eplerenone Excreted in Urine ([3]; 100 mg dose, 0 to 2 hours): 2623.3 ng/mL
Amount of Eplerenone Excreted in Urine ([3]; 100 mg dose, 0 to 24 hours): (1271.4) mcg
Amount of Eplerenone Excreted in Urine ([3]; 100 mg dose, 2 to 4 hours): (407.6) mcg
Concentration of Eplerenone Excreted in Urine ([3]; 100 mg dose, 2 to 4 hours): 2305.6 ng/mL
Amount of Eplerenone Excreted in Urine ([3]; 100 mg dose, 4 to 6 hours): (285.1) mcg
Concentration of Eplerenone Excreted in Urine ([3]; 100 mg dose, 4 to 6 hours): 1157.3 ng/mL
Amount of Eplerenone Excreted in Urine ([3]; 100 mg dose, 6 to 8 hours): (158.8) mcg
Concentration of Eplerenone Excreted in Urine ([3]; 100 mg dose, 6 to 8 hours): 627.6 ng/mL
Amount of Eplerenone Excreted in Urine ([3]; 100 mg dose, 8 to 10 hours): (69.1) mcg
Concentration of Eplerenone Excreted in Urine ([3]; 100 mg dose, 8 to 10 hours): 362.9 ng/mL
Amount of Eplerenone Excreted in Urine ([3]; 100 mg dose, 10 to 12 hours): (44.7) mcg
Concentration of Eplerenone Excreted in Urine ([3]; 100 mg dose, 10 to 12 hours): 146.6 ng/mL
Amount of Eplerenone Excreted in Urine ([3]; 100 mg dose, 12 to 14 hours): (26.6) mcg
Concentration of Eplerenone Excreted in Urine ([3]; 100 mg dose, 12 to 14 hours): 110.3 ng/mL
Amount of Eplerenone Excreted in Urine ([3]; 100 mg dose, 14 to 16 hours): (6.6) mcg
Concentration of Eplerenone Excreted in Urine ([3]; 100 mg dose, 14 to 16 hours): 36.5 ng/mL
Amount of Eplerenone Excreted in Urine ([3]; 100 mg dose, 16 to 24 hours): (2.7) mcg
Concentration of Eplerenone Excreted in Urine ([3]; 100 mg dose, 16 to 24 hours): 7.1 ng/mL
Amount of Eplerenone Excreted in Urine ([3]; 100 mg dose, −9 to 0 hours): (0) mcg
Concentration of Eplerenone Excreted in Urine ([3]; 100 mg dose, −9 to 0 hours): 0 ng/mL
Amount of Eplerenone Excreted in Urine ([3]; 300 mg dose, 0 to 2 hours): (677.7) mcg
Concentration of Eplerenone Excreted in Urine ([3]; 300 mg dose, 0 to 2 hours): 9370.1 ng/mL
Amount of Eplerenone Excreted in Urine ([3]; 300 mg dose, 0 to 24 hours): (2872.3) mcg
Amount of Eplerenone Excreted in Urine ([3]; 300 mg dose, 2 to 4 hours): (873.7) mcg
Concentration of Eplerenone Excreted in Urine ([3]; 300 mg dose, 2 to 4 hours): 6465.9 ng/mL
Amount of Eplerenone Excreted in Urine ([3]; 300 mg dose, 4 to 6 hours): (672.6) mcg
Concentration of Eplerenone Excreted in Urine ([3]; 300 mg dose, 4 to 6 hours): 3865.2 ng/mL
Amount of Eplerenone Excreted in Urine ([3]; 300 mg dose, 6 to 8 hours): (337.0) mcg
Concentration of Eplerenone Excreted in Urine ([3]; 300 mg dose, 6 to 8 hours): 2237.8 ng/mL
Amount of Eplerenone Excreted in Urine ([3]; 300 mg dose, 8 to 10 hours): (307.9) mcg
Concentration of Eplerenone Excreted in Urine ([3]; 300 mg dose, 8 to 10 hours): 1208.6 ng/mL
Amount of Eplerenone Excreted in Urine ([3]; 300 mg dose, 10 to 12 hours): (162.4) mcg
Concentration of Eplerenone Excreted in Urine ([3]; 300 mg dose, 10 to 12 hours): 542.4 ng/mL
Amount of Eplerenone Excreted in Urine ([3]; 300 mg dose, 12 to 14 hours): (97.4) mcg
Concentration of Eplerenone Excreted in Urine ([3]; 300 mg dose, 12 to 14 hours): 419.6 ng/mL
Amount of Eplerenone Excreted in Urine ([3]; 300 mg dose, 14 to 16 hours): (52.2) mcg
Concentration of Eplerenone Excreted in Urine ([3]; 300 mg dose, 14 to 16 hours): 292.6 ng/mL
Amount of Eplerenone Excreted in Urine ([3]; 300 mg dose, 16 to 24 hours): (50.4) mcg
Concentration of Eplerenone Excreted in Urine ([3]; 300 mg dose, 16 to 24 hours): 126.4 ng/mL
Amount of Eplerenone Excreted in Urine ([3]; 300 mg dose, −9 to 0 hours): (0) mcg
Concentration of Eplerenone Excreted in Urine ([3]; 300 mg dose, −9 to 0 hours): 0 ng/mL
Amount of Eplerenone Excreted in Urine ([3]; 1000 mg dose, 0 to 2 hours): (1482.0) mcg
Concentration of Eplerenone Excreted in Urine ([3]; 1000 mg dose, 0 to 2 hours): 17858.6 ng/mL
Amount of Eplerenone Excreted in Urine ([3]; 1000 mg dose, 0 to 24 hours): (17246.6) mcg
Amount of Eplerenone Excreted in Urine ([3]; 1000 mg dose, 2 to 4 hours): (5983.3) mcg
Concentration of Eplerenone Excreted in Urine ([3]; 1000 mg dose, 2 to 4 hours): 24460.3 ng/mL
Amount of Eplerenone Excreted in Urine ([3]; 1000 mg dose, 4 to 6 hours): (4041.5) mcg
Concentration of Eplerenone Excreted in Urine ([3]; 1000 mg dose, 4 to 6 hours): 13899.7 ng/mL
Amount of Eplerenone Excreted in Urine ([3]; 1000 mg dose, 6 to 8 hours): (2083.0) mcg
Concentration of Eplerenone Excreted in Urine ([3]; 1000 mg dose, 6 to 8 hours): 8782.1 ng/mL
Amount of Eplerenone Excreted in Urine ([3]; 1000 mg dose, 8 to 10 hours): (1853.9) mcg
Concentration of Eplerenone Excreted in Urine ([3]; 1000 mg dose, 8 to 10 hours): 4491.0 ng/mL
Amount of Eplerenone Excreted in Urine ([3]; 1000 mg dose, 10 to 12 hours): (1177.2) mcg
Concentration of Eplerenone Excreted in Urine ([3]; 1000 mg dose, 10 to 12 hours): 2361.1 ng/mL
Amount of Eplerenone Excreted in Urine ([3]; 1000 mg dose, 12 to 14 hours): (892.8) mcg
Concentration of Eplerenone Excreted in Urine ([3]; 1000 mg dose, 12 to 14 hours): 3183.7 ng/mL
Amount of Eplerenone Excreted in Urine ([3]; 1000 mg dose, 14 to 16 hours): (340.5) mcg
Concentration of Eplerenone Excreted in Urine ([3]; 1000 mg dose, 14 to 16 hours): 1405.2 ng/mL
Amount of Eplerenone Excreted in Urine ([3]; 1000 mg dose, 16 to 24 hours): (366.0) mcg
Concentration of Eplerenone Excreted in Urine ([3]; 1000 mg dose, 16 to 24 hours): 658.0 ng/mL
Amount of Eplerenone Excreted in Urine ([3]; 1000 mg dose, −9 to 0 hours): (0) mcg
Concentration of Eplerenone Excreted in Urine ([3]; 1000 mg dose, −9 to 0 hours): 0 ng/mL

Source: patent US6410054B1, “Immediate release eplerenone compositions” (G. D. Searle & Co., priority 1998, dated 2002)
